Laboratory results published in patent US11572344B2, “Cyanoaryl-aniline compounds for treatment of dermal disorders” (NFlection Therapeutics, Inc., priority 2018, dated 2023).

Test system: pERK in human cutaneous neurofibroma explants
Assay: Human cutaneous neurofibroma explant pERK suppression (Western blot)
Format: cell-based
Experimental: Explant Protocol: Human cutaneous neurofibroma explant samples were collected in DMEM/F-12 (Thermo Fisher, Cat #11320033) supplemented with 1×B27 supplement (Thermo Fisher, Cat #17504044), 2.5 μg/ml of Amphotericin B (Thermo Fisher, Cat #15290018), and 50 units/ml of Penicillin-50 μg/ml of Streptomycin (Thermo Fisher, Cat #15070063) and incubated in the same medium for subsequent treatment. The specimen was cut into small cubes containing both the epidermis and dermis. The tissues were partially submerged in the medium in 384-well plate with the epidermis exposed to the air.
The tissues were fully submerged in the medium in 48-well plate and 5 μl of compounds dissolved in DMSO were added to 200 μl of the medium in each well. After 4 h incubation at 37° C. and 5% CO2, the tissues were harvested and half of the specimen was flash frozen in liquid nitrogen for Western Blot analysis. The other half of the specimen was fixed for 24 hours in 10% formalin and then transferred to 70% ethanol for […].
Skin samples were thawed on ice and weighed. 10 volume (10 μl for each mg of tissue) of lysis buffer (RIPA buffer+0.5 mM EDTA+1×Halt protease and phosphatase inhibitor cocktail) was then added to each sample. […]
Western Blot analysis: The lysate was thawed on ice and protein concentration was determined by the BCA protein assay kit using bovine serum albumin (BSA) as standards. […]

N#Cc1ccc(C(=O)NOCCO)c(Nc2ccc(I)cc2F)c1F [Compound 1.030, 4-cyano-3-fluoro-2-((2-fluoro-4-iodophenyl)amino)-N-(2-hydroxyethoxy) benzamide]
suppression of pERK in human cutaneous neurofibroma (cNF) explants (concentration of 500 nM (FIG. 5)): suppression of pERK | suppression of pERK in human cutaneous neurofibroma (cNF) explants (treatment for 4 hours at 5 nM, 50 nM, and 500 nM (FIG. 4)): suppression of pERK
